Experimental data reported in patent US12594343B2, “Treatment of cancer” (INNATE PHARMA, priority 2020, dated 2026).

T1: wild-type human Nectin-4 protein (Homo sapiens, UniProt Q96NY8)
T1 construct: expressed in transfected cells
T1 sequence (Q96NY8 32-510): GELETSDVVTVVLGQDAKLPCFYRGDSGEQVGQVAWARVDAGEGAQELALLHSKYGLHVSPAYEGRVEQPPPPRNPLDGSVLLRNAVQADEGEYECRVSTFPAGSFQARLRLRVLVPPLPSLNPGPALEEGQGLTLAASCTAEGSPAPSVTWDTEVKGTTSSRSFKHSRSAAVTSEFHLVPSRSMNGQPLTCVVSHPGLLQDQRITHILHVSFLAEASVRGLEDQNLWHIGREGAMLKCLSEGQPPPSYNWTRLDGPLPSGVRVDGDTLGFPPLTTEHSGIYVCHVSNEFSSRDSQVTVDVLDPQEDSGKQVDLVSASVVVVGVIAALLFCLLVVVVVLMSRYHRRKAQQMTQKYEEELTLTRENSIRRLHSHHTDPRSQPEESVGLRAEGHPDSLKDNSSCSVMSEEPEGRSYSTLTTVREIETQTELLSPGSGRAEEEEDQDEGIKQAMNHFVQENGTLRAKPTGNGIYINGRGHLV

T2: modified Nectin-4 lacking the Ig-like V domain (the C1C2 construct) (Homo sapiens, UniProt Q96NY8)
T2 construct: having the Ig-like C2 type 1 and the Ig-like C2 type 2 domains and lacking the Ig-like V domain (the C1C2 construct); expressed in transfected cells
T2 sequence (Q96NY8 148-510): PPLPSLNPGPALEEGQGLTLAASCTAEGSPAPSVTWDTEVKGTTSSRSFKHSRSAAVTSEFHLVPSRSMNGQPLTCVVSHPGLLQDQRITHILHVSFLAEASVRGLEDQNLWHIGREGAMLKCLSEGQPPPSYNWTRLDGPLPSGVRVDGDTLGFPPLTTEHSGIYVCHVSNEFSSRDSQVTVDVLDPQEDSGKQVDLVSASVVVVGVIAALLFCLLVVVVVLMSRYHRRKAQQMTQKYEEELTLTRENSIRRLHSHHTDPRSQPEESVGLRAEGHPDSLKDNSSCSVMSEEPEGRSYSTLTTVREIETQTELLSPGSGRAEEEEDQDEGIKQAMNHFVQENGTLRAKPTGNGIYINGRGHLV


Tests used:
UC = details: cited from earlier work
SUM185 cells = experiment: Fab-ZAP internalization assay (cell viability, CTG); type: cell-based, human; details: SUM185 (higher Nectin-4)
Method: (§1) The ability of the anti-nectin-4 antibodies to induce nectin-4 internalization was assessed on SUM190 cell lines expressing lower levels of nectin-4 and in SUM185 cells expressing higher levels of Nectin-4. […] Internalization was indirectly determined by using the Fab-ZAP human Internalization Kit (Advanced Targeting Systems) to allow the anti-Nectin-4 antibodies to target and eliminate Nectin-4 expressing cells, with measurement of cell viability using the CTG substrate (CellTiter-Glo® Luminescent Cell Viability Assay (Promega). Fab-ZAP is a chemical conjugate of goat anti-human monovalent antibody and the ribosome-inactivating protein, saporin. The antibodies used are affinity-purified polyclonal antibodies against both the heavy and light chain of human IgG. This secondary conjugate is used to evaluate the potential of a primary antibody to internalize.
(§2) Briefly, a concentration range of the antibodies or the control items was incubated on top of the SUM190 or SUM185 cells. After the incubation, the non-bound antibodies were washed away and Fab-ZAP was added on top of the cells. The newly formed complexes (anti-nectin-4 antibody+Fab-ZAP) internalized into the cells where the Saporin was released and stopped the protein synthesis leading to cell death. The internalization capability of the antibody was indirectly determined by the cells viability: the more efficient was the cell killing; the better was the internalization capability of the antibody.

SUM190 cells = experiment: as above; type: cell-based, human; details: SUM190 (lower Nectin-4)
Method: as §1, §2

[1] = target: T1, wild-type human Nectin-4 protein; experiment: Flow cytometry binding to CHO cells expressing wild-type Nectin-4
Method: (§3) The characterization of the binding of the antibodies on Nectin-4 domains was performed by flow cytometry using cells made to express the wild-type human Nectin-4 protein and cells made to express a modified Nectin-4 having the Ig-like C2 type 1 and the Ig-like C2 type 2 domains and lacking the Ig-like V domain (the C1C2 construct). The latter protein additionally bears a V5 tag for flow cytometry cell sorting, and cells were used as Nectin4-C1C2-V5 sorted cells.
(§4) Wild-type Nectin-4 (the CI.3C8 cell line), a C2 construct (containing the Ig-like C2 type 2 domain and lacking both the V and the C1 domains) and the C1C2 construct allow the determination of whether test antibodies bind to the V or different C domains. Briefly, nucleic acid sequences encoding different human Nectin-4 domains were amplified by PCR. The PCR products were inserted into an expression vector at appropriate restriction sites. A leader peptide, and for C1C2 and C2 an N-terminal V5 tag having the amino acid sequence […] (SEQ ID NO: 13), were added, and expression at the surface of cells was confirmed by flow cytometry. The amino acid sequences of the resulting different human Nectin-4 domain fragment-containing proteins are shown below (V5 tag underlined). The vectors were then transfected into the CHO cell line to obtain stable clones expressing the different Nectin-4 domain proteins at the cell surface.

[2] = target: T2, modified Nectin-4 lacking the Ig-like V domain (the C1C2 construct); type: binding; details: flow cytometry, CHO cells
Method: as §3, §4

[3] = system: modified Nectin-4 lacking the Ig-like V domain (the C1C2 construct); type: binding, human; details: concluded from wild-type versus C1C2 binding
Method: as §3, §4

pancreatic cancer = details: 349 patients; cited from earlier work
[4] = system: advanced or metastatic urothelial tract tumors; details: cited from earlier work
SUM190 tumor cells = experiment: ADC-induced tumor cell death, Cell Titer Glo viability at day 6; type: cell-based, human
Method: The resulting ADCs were tested for their ability to induce death of Nectin-4/Her2 expressing SUM190 and SUM185 tumor cells of Example 1. Briefly, cells were plated cells in 96 well plates (V=80 μl). N4 ADC1 and Her2 ADC1 or human IgG1-isotype control (IC)-linker-toxin or medium (conc. 5×) were tested in 1:2 serial dilution starting from (530 nM to 30 nM) and in a 1:5 serial dilution (7 nM to 7×10−2 nM) for the N4 ADC1 and isotype control. N4 ADC2 and isotype control were tested in 1:10 serial dilution starting from (530 nM to 5.3 10-2). The ADCs' ability to cause cell death was determined by assessing confluence using Incucyte S3-2 apparatus; viability at day 6 after treatment was determined using the Cell Titer Glo™ (CTG) assay with an Enspire2 apparatus. IC50 values for each ADC was determined using Luminescent Cell Viability at day 6 data with GraphPad Prism8. Experiments were repeated twice.
The anti-Nectin-4 camptothecin-analogue ADCs used were the N4 ADC1 as shown in Example 2. The anti-Her2 ADCs were also those used in Example 2 (Her2 ADC1). The ADC's ability to cause cell death was determined by assessing confluence and determining viability of SUM190 cells at day 6 as described in Example 2.

Molecule	ability to induce internalization (SUM185 cells)	ability to induce internalization (SUM190 cells)	binding to whole Nectin-4 protein [1]	binding to C1C2 construct lacking the V domain [2]	Nectin-4 domain bound [3]	also measured
enfortumab vedotin	–	–	–	–	–	CR (complete response rate) (UC; UC patients): 12%; ORR (objective response rate) (UC; UC patients): 44%; discontinuation due to progressive disease as assessed by RECIST (UC; UC patients): 48%; discontinuation due to progressive disease by clinical symptoms (UC; UC patients): 5%; patients that discontinued experienced adverse events, notably neuropathy (UC): 18%
enfortumab: anti-Nectin-4 antibody, VH and VL of SEQ ID NOS: 3 and 4 as human IgG1 isotype	highly potent in the ability to induce of internalization	highly potent in the ability to induce of internalization	bound to the whole Nectin-4 protein	lost binding	within the V domain	–
CC[C@@]1(O)C(=O)OCc2c1cc1n(c2=O)Cc2c-1nc1cc(F)c(C)c3c1c2[C@@H](N)CC3 [exatecan]	–	–	–	–	–	efficacy of exatecan in addition to gemcitabine versus gemcitabine alone (pancreatic cancer): not superior in efficacy to gemcitabine alone
CC[C@@]1(O)C(=O)OCc2c1cc1n(c2=O)Cc2cc3c([N+](=O)[O-])cccc3nc2-1 [RFS2000]	–	–	–	–	–	activity in patients failing prior chemotherapy [4]: did not exert significant activity
N4 ADC2: Anti-Nectin-4 antibody conjugated to a second camptothecin (SN-38) containing linker (conjugate) VH: QVQLKQSGPGLVQPSQSLSITCTVSGFSLTNYGVHWVRQSPGKGLEWLGVIWSGGSTDYNAAFISRLSISKDTSKSQVFFKMNSLQADDTAIYYCARELIHAMDNWGQGTSVTVSS VL: DIQMTQSPASLSVSVGETVTITCRASENIYSNLAWYQQKQGNSPQLLVFAATNLADGVPSRFSGSGSGTQYSLKINSLQSEDFGTYYCQHFWGTPTFGGGTKLEIK	–	–	–	–	–	potency in causing tumor cell death (in words) (SUM190 tumor cells): good potency
N41: anti-Nectin-4 antibody, VH and VL of SEQ ID NOS: 9 and 10 as human IgG1 isotype (antibody, listed as Mus musculus, V domains shown, human IgG1 constant regions) VH: QVQLKQSGPGLVQPSQSLSITCTVSGFSLTNYGVHWVRQSPGKGLEWLGVIWSGGSTDYNAAFISRLSISKDTSKSQVFFKMNSLQADDTAIYYCARELIHAMDNWGQGTSVTVSS VL: DIQMTQSPASLSVSVGETVTITCRASENIYSNLAWYQQKQGNSPQLLVFAATNLADGVPSRFSGSGSGTQYSLKINSLQSEDFGTYYCQHFWGTPTFGGGTKLEIK	highly potent in the ability to induce of internalization	highly potent in the ability to induce of internalization	bound to the whole Nectin-4 protein	lost binding	within the V domain	–
